In the Kinase Knowledgebase extract (Sharma et al. 2016) one finds IC50 data, which are given here for 64 compounds.

This test concerns the target ROCK2 (human) (UniProt O75116). In words: Inhibition of ROCK2 Kinase Activity.

One may read the IC50 as the concentration at which inhibition is half-maximal. Low readings indicate greater potency in that assay, high ones weaker potency in that assay.

The structures appear in SMILES notation.

Chain of ROCK2 (human) (O75116 whole entry, looked up): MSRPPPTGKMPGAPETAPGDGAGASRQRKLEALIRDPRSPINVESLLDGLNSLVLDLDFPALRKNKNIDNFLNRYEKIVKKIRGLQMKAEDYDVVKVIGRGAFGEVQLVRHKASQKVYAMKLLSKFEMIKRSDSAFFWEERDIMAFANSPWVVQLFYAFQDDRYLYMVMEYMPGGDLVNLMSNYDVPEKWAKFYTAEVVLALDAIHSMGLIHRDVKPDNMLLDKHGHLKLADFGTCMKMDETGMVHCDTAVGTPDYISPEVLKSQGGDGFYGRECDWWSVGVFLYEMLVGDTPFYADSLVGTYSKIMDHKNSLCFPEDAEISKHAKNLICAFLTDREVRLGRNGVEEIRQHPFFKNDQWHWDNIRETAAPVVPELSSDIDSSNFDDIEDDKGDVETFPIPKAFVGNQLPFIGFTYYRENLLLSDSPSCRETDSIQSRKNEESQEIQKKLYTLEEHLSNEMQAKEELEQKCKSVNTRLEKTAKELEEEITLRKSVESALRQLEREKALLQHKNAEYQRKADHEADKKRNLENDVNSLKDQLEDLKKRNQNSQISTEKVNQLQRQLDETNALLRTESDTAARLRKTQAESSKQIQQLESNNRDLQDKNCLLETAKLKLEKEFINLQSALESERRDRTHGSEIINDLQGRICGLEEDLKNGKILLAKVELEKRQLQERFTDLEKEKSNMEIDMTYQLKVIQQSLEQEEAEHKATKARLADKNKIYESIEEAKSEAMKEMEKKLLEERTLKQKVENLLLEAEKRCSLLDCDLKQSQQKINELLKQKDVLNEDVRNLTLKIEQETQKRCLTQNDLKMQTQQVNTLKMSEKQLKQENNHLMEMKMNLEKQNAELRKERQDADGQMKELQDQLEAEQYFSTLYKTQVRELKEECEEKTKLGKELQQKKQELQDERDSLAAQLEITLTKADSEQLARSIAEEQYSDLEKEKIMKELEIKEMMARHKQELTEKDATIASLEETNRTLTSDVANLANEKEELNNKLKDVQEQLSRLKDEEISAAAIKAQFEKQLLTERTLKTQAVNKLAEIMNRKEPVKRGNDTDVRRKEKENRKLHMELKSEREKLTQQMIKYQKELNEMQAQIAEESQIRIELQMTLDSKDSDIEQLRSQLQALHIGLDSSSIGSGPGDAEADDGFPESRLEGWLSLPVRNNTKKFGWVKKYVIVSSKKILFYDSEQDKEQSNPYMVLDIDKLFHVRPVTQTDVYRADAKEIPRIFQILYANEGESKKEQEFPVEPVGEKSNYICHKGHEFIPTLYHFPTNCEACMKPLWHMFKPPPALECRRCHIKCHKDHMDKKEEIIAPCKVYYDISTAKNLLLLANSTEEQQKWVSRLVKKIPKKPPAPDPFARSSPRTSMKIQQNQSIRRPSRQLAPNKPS

Compound `NC(c1ccc(C(=O)Nc2ccncc2)cc1)C1CCCN1C(=O)Cc1ccc(Cl)c(Cl)c1` (centres undefined) returned an IC50 of 500 to 5000 nM. To `CN(CC(N)c1ccc(C(=O)Nc2ccncc2)cc1)C(=O)Cc1ccc(-c2ccccc2)cc1` (centres undefined) belongs 500 to 5000 nM. As to `CCNS(=O)(=O)c1cccc(C(=O)NCC(N)c2ccc(C(=O)Nc3ccncc3)cc2)c1` (centres undefined), the IC50 was 500 to 5000 nM.

Regarding `NC(c1ccc(C(=O)Nc2ccncc2)cc1)C1CCCN1C(=O)Cc1c(F)cccc1Cl` (centres undefined), the IC50 is 500 to 5000 nM. In the case of `Cc1ccc(CC(=O)N2CCCC2C(N)c2ccc(C(=O)Nc3ccncc3)cc2)cc1` (centres undefined) it was 500 to 5000 nM. Take `N[C@H](CNC(=O)C1(c2ccc(Cl)cc2)CC1)c1ccc(C(=O)Nc2ccncc2)cc1`: the IC50 lay in the range of 50 to 500 nM.

In turn, `COc1ccc(CCNC(=O)CC(N)c2ccc(C(=O)Nc3ccncc3)cc2)cc1OC` (centres undefined) returned an IC50 of 500 to 5000 nM. Take `NC(CNC(=O)c1csc(Nc2ccc(F)cc2)n1)c1ccc(C(=O)Nc2ccncc2)cc1` (centres undefined): the IC50 was 500 to 5000 nM. For `NC(c1ccc(C(=O)Nc2ccncc2)cc1)C1CCCN1C(=O)C1CCOc2ccc(Cl)cc21` (centres undefined), the 50% inhibitory concentration (IC50) is 500 to 5000 nM. `NC(c1ccc(C(=O)Nc2ccncc2)cc1)C1CCCN1C(=O)C1CCSc2ccccc21` (centres undefined) yielded an IC50 of 500 to 5000 nM.

Consider `NC(CC(=O)NCCN1CCOCC1)c1ccc(C(=O)Nc2ccncc2)cc1` (centres undefined), for which the IC50 lay within 50 to 500 nM. To `COCCNC(=O)CC(N)c1ccc(C(=O)Nc2ccncc2)cc1` (centres undefined) belongs 50 to 500 nM; to `CC(C)(C)NC(=O)NCC(N)c1ccc(C(=O)Nc2ccncc2)cc1` (centres undefined), 500 to 5000 nM. In the case of `NC(CNC(=O)c1cc2ccccc2[nH]1)c1ccc(C(=O)Nc2ccncc2)cc1` (centres undefined) it was 500 to 5000 nM; in that of `CN(CC(N)c1ccc(C(=O)Nc2ccncc2)cc1)C(=O)C(c1ccccc1)C1CCCC1` (centres undefined), 5000 to 50000 nM. To `COc1ccc(CC(=O)N2CCCC2C(N)c2ccc(C(=O)Nc3ccncc3)cc2)cc1` (centres undefined) belongs 50 to 500 nM; to `CC(C)CC(=O)NCC(N)c1ccc(C(=O)Nc2ccncc2)cc1` (centres undefined), 500 to 5000 nM. The compound `CN(CC(N)c1ccc(C(=O)Nc2ccncc2)cc1)C(=O)C1(c2ccc(F)cc2F)CC1` (centres undefined) showed an IC50 of 500 to 5000 nM.

`NC(CC(=O)NCc1cccc(F)c1)c1ccc(C(=O)Nc2ccncc2)cc1` (centres undefined): the IC50 lay within 50 to 500 nM.

As to `NC(c1ccc(C(=O)Nc2ccncc2)cc1)C1CCCN1C(=O)C1(c2ccc(F)c(Cl)c2)CC1` (centres undefined), the IC50 is 500 to 5000 nM. To `NC(CNC(=O)C1(c2ccc(F)cc2F)CC1)c1ccc(C(=O)Nc2ccncc2)cc1` (centres undefined) belongs 50 to 500 nM; to `NC(CNC(=O)Cc1c(F)cccc1F)c1ccc(C(=O)Nc2ccncc2)cc1` (centres undefined), 500 to 5000 nM. To `COc1ccc(C2(C(=O)N(C)CC(N)c3ccc(C(=O)Nc4ccncc4)cc3)CC2)cc1` (centres undefined) belongs 500 to 5000 nM; to `NC(CNC(=O)Cc1cccs1)c1ccc(C(=O)Nc2ccncc2)cc1` (centres undefined), 50 to 500 nM; to `COc1cccc(NC(=O)NCC(N)c2ccc(C(=O)Nc3ccncc3)cc2)c1` (centres undefined), 50 to 500 nM. In the case of `Cc1ccccc1C(=O)NCC(N)c1ccc(C(=O)Nc2ccncc2)cc1` (centres undefined) it was 500 to 5000 nM; in that of `N[C@H](CNC(=O)C1(c2ccc(F)cc2)CCCC1)c1ccc(C(=O)Nc2ccncc2)cc1`, 50 to 500 nM. Regarding `NC(CNC(=O)CNC(=O)c1ccco1)c1ccc(C(=O)Nc2ccncc2)cc1` (centres undefined), the IC50 lay within 50 to 500 nM. In the case of `CCCOc1ccc(C(=O)NCC(N)c2ccc(C(=O)Nc3ccncc3)cc2)cc1` (centres undefined) it was 500 to 5000 nM; in that of `CC(C)(C(=O)N1CCCC1C(N)c1ccc(C(=O)Nc2ccncc2)cc1)c1ccc(Cl)c(Cl)c1` (centres undefined), 500 to 5000 nM; in that of `COc1ccc(OC)c(CNC(=O)CC(N)c2ccc(C(=O)Nc3ccncc3)cc2)c1` (centres undefined), 50 to 500 nM. To `Cc1nc(-c2ccccc2)sc1C(=O)NCC(N)c1ccc(C(=O)Nc2ccncc2)cc1` (centres undefined) belongs 500 to 5000 nM; to `CS(=O)(=O)c1ccc(CNC(=O)CC(N)c2ccc(C(=O)Nc3ccncc3)cc2)cc1` (centres undefined), 50 to 500 nM. `CC(C)(C)ON=Cc1cccc(C(=O)NCC(N)c2ccc(C(=O)Nc3ccncc3)cc2)c1` (centres undefined) returned an IC50 of 500 to 5000 nM. `NC(c1ccc(C(=O)Nc2ccncc2)cc1)C1CCCN1C(=O)C1CC(=O)c2ccccc21` (centres undefined) displayed an IC50 of 500 to 5000 nM. In the case of `NC(CNC(=O)c1cccc2ccccc12)c1ccc(C(=O)Nc2ccncc2)cc1` (centres undefined), the IC50 lay in the range of 500 to 5000 nM. The compound `NC(CNC(=O)c1cc2cc(Cl)ccc2o1)c1ccc(C(=O)Nc2ccncc2)cc1` (centres undefined) displayed an IC50 of 500 to 5000 nM. With `Cc1ccccc1CNC(=O)CC(N)c1ccc(C(=O)Nc2ccncc2)cc1` (centres undefined), the IC50 was 50 to 500 nM. Compound `CN(CC(N)c1ccc(C(=O)Nc2ccncc2)cc1)C(=O)C1(c2ccccc2)CC1` (centres undefined) yielded an IC50 of 500 to 5000 nM. In the case of `CC(=O)NCC(N)c1ccc(C(=O)Nc2ccncc2)cc1` (centres undefined) it was 500 to 5000 nM. In the case of `CC(C)(C)ON=Cc1ccc(C(=O)NCC(N)c2ccc(C(=O)Nc3ccncc3)cc2)cc1` (centres undefined) it was 500 to 5000 nM; in that of `N[C@H](CC(=O)N[C@@H]1COc2ccccc21)c1ccc(C(=O)Nc2ccncc2)cc1`, less than 50 nM; in that of `Cc1cccc(C(=O)NCC(N)c2ccc(C(=O)Nc3ccncc3)cc2)c1` (centres undefined), 500 to 5000 nM.

`NC(c1ccc(C(=O)Nc2ccncc2)cc1)C1CCCN1C(=O)Cc1cncc(Br)c1` (centres undefined) gave an IC50 of 500 to 5000 nM. With `Cc1cccc(CC(=O)N(C)CC(N)c2ccc(C(=O)Nc3ccncc3)cc2)c1` (centres undefined), the IC50 lay in the range of 500 to 5000 nM.

Turning to `NC(CNC(=O)c1cccc(Cl)c1)c1ccc(C(=O)Nc2ccncc2)cc1` (centres undefined), the IC50 fell in the range of 500 to 5000 nM. To `N[C@@H](CC(=O)NC1COc2ccccc21)c1ccc(C(=O)Nc2ccncc2)cc1` (some centres undefined) belongs 50 to 500 nM; to `CC(CNC(=O)CC(N)c1ccc(C(=O)Nc2ccncc2)cc1)c1ccccc1` (centres undefined), 50 to 500 nM; to `CC(C)(C(=O)NCC(N)c1ccc(C(=O)Nc2ccncc2)cc1)c1ccsc1` (centres undefined), 50 to 500 nM. In turn, `NC(c1ccc(C(=O)Nc2ccncc2)cc1)C1CCCN1C(=O)Cc1ccc(F)cc1Cl` (centres undefined) returned an IC50 of 500 to 5000 nM. In the case of `CC(C)(C(=O)NCC(N)c1ccc(C(=O)Nc2ccncc2)cc1)c1cccs1` (centres undefined) it was 50 to 500 nM. In the case of `NC(CNC(=O)Cc1csc(Nc2ccccc2)n1)c1ccc(C(=O)Nc2ccncc2)cc1` (centres undefined), the IC50 lay within 500 to 5000 nM. On to `CN(CC(N)c1ccc(C(=O)Nc2ccncc2)cc1)C(=O)Cc1cccc(F)c1F` (centres undefined), for which the IC50 lay within 500 to 5000 nM.

Compound `NC(CNC(=O)Cc1ccc2ccccc2c1)c1ccc(C(=O)Nc2ccncc2)cc1` (centres undefined) gave an IC50 of 500 to 5000 nM. In turn, `CN(CC(N)c1ccc(C(=O)Nc2ccncc2)cc1)C(=O)Cc1ccc(Cl)cc1` (centres undefined) yielded an IC50 of 500 to 5000 nM. For the compound `NC(CC(=O)NCc1ccc([N+](=O)[O-])cc1)c1ccc(C(=O)Nc2ccncc2)cc1` (centres undefined), the IC50 lay within 50 to 500 nM. As for `CCC(C)C(=O)NCC(N)c1ccc(C(=O)Nc2ccncc2)cc1` (centres undefined), the IC50 lay within 500 to 5000 nM. On to `COC(=O)C(C)NC(=O)CC(N)c1ccc(C(=O)Nc2ccncc2)cc1` (centres undefined), for which the IC50 was in the range of 50 to 500 nM.

Compound `NC(CC(=O)NC(c1ccccc1)c1ccc(Cl)cc1)c1ccc(C(=O)Nc2ccncc2)cc1` (centres undefined) came in with an IC50 of 50 to 500 nM. Compound `NC(c1ccc(C(=O)Nc2ccncc2)cc1)C1CCCN1C(=O)C1(c2ccc(F)cc2)CCC1` (centres undefined) had an IC50 of 500 to 5000 nM. In the case of `COc1ccc(NC(=O)CC(N)c2ccc(C(=O)Nc3ccncc3)cc2)cc1` (centres undefined) it was 50 to 500 nM; in that of `Cc1ccsc1C=NOCC(=O)NCC(N)c1ccc(C(=O)Nc2ccncc2)cc1` (centres undefined), 500 to 5000 nM.

`Cc1ccc(CC(=O)NCC(N)c2ccc(C(=O)Nc3ccncc3)cc2)cc1` (centres undefined) yielded an IC50 of 50 to 500 nM. In the case of `NC(CNC(=O)CC1CC1)c1ccc(C(=O)Nc2ccncc2)cc1` (centres undefined) it was 500 to 5000 nM.
